“And” between values parts separate entries of the source, which are not always exact repeats. Equal entries are not always repeated.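 A five-concentration, 48-hour dose response in 96-well plates underlies each endpoint, interpolated linearly between surrounding concentrations. GI50: concentration for 50% inhibition of growth.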 The source made the active and inactive calls. Cut-off read from the data, not from the text of the source: active = GI50 up to about 1.1 µM and inactive = higher.
Key:
Assay in all cases: NCI-60 cell line screen, 48 h
NCI-H522 = tested on: NCI-H522
OVCAR-3 = tested on: OVCAR-3
UO-31 = tested on: UO-31
SK-MEL-2 = tested on: SK-MEL-2
HOP-92 = tested on: HOP-92
UACC-257 = tested on: UACC-257
M14 = tested on: M14
SF-295 = tested on: SF-295
RPMI-8226 = tested on: RPMI-8226
T47D = tested on: T47D
HCC 2998 = tested on: HCC 2998
NCI-H460 = tested on: NCI-H460
A549 = tested on: A549
786-0 = tested on: 786-0
SK-MEL-28 = tested on: SK-MEL-28
Malme-3M = tested on: Malme-3M
K562 = tested on: K562
HOP-62 = tested on: HOP-62
HL-60 = tested on: HL-60
LOX IMVI = tested on: LOX IMVI

Measured: GI50

COC1C(OC(C)=O)CC(=O)OC(C)C/C=C/C=C\C(O)C(C)CC(CC=O)C1OC1OC(C)C(OC2CC(C)(O)C(OC(=O)CC(C)C)C(C)O2)C(N(C)C)C1O (centres undefined)
inactive: NCI-H522 > 100 µM | OVCAR-3 > 100 µM and 96.8 µM | UO-31 64.9 µM and 43.8 µM | SK-MEL-2 > 100 µM | HOP-92 > 100 µM | UACC-257 66.5 µM and 70.1 µM | M14 89.3 µM and 57.5 µM | SF-295 > 100 µM | RPMI-8226 > 100 µM and 58.2 µM | T47D > 100 µM | HCC 2998 > 100 µM | NCI-H460 > 100 µM | A549 > 100 µM | 786-0 > 100 µM | SK-MEL-28 > 100 µM | Malme-3M > 100 µM | K562 29.5 µM and 51.2 µM | HOP-62 > 100 µM

N#CCCN(CCC#N)c1ccc(/C=C2\N=C(c3ccccc3)N(c3ccc(Cl)cc3)C2=O)cc1
inactive: NCI-H522 > 100 µM | OVCAR-3 > 100 µM | UO-31 45.4 µM | SK-MEL-2 76.6 µM | HOP-92 > 100 µM | HL-60 > 100 µM | UACC-257 > 100 µM | M14 > 100 µM | SF-295 30.3 µM | RPMI-8226 > 100 µM | T47D > 100 µM | NCI-H460 > 100 µM | A549 > 100 µM | 786-0 > 100 µM | SK-MEL-28 > 100 µM | Malme-3M > 100 µM | K562 48 µM | HOP-62 > 100 µM | LOX IMVI 2.5 µM

CC(C)=C1C(=O)C[C@]2(C)C/C=C(\C)CC/C=C(\C)CC[C@@H]12
inactive: NCI-H522 6.97 µM | OVCAR-3 8.53 µM | UO-31 7.73 µM | SK-MEL-2 7.85 µM | HOP-92 9.53 µM | UACC-257 11.1 µM | M14 7.87 µM | SF-295 11.3 µM | RPMI-8226 11.9 µM | T47D 14.9 µM | HCC 2998 7.53 µM | A549 14.1 µM | 786-0 8.69 µM | SK-MEL-28 8.22 µM | K562 6.65 µM | HOP-62 9.08 µM

CN1CCCCC1CCN1c2ccccc2Sc2ccc([S+](C)[O-])cc21 (centres undefined) [MESORIDAZINE]
inactive: NCI-H522 > 100 µM | OVCAR-3 > 100 µM | SK-MEL-2 > 100 µM | HOP-92 > 100 µM | HL-60 > 100 µM | UACC-257 > 100 µM | M14 > 100 µM | SF-295 > 100 µM | RPMI-8226 > 100 µM | T47D > 100 µM | NCI-H460 > 100 µM | A549 > 100 µM | 786-0 > 100 µM | SK-MEL-28 > 100 µM | Malme-3M > 100 µM | K562 > 100 µM | HOP-62 > 100 µM | LOX IMVI > 100 µM

CC(N/N=N/c1ccc(-c2nc3ccccc3[nH]2)cc1)C(=O)O (centres undefined)
inactive: NCI-H522 23.3 µM | OVCAR-3 18.6 µM | UO-31 39.1 µM | SK-MEL-2 59.3 µM | HOP-92 > 100 µM | HL-60 32.6 µM | UACC-257 > 100 µM | M14 35.1 µM | SF-295 19.6 µM | RPMI-8226 1.91 µM | T47D 16.3 µM | NCI-H460 17.5 µM | A549 33 µM | 786-0 15.7 µM | SK-MEL-28 > 100 µM | Malme-3M 26.3 µM | K562 7.16 µM | HOP-62 45.2 µM | LOX IMVI 28.2 µM

CCC1c2[nH]c3ccccc3c2C[C@H]2C(=O)NC(CCC(=O)OC(C)(C)C)C(=O)N12 (some centres undefined)
inactive: NCI-H522 29.6 µM | OVCAR-3 22.4 µM | UO-31 46.9 µM | SK-MEL-2 60.8 µM | HOP-92 30.6 µM | HL-60 34 µM | UACC-257 40.2 µM | M14 42.5 µM | SF-295 42.3 µM | RPMI-8226 31.6 µM | T47D 40.6 µM | A549 43 µM | 786-0 56.6 µM | SK-MEL-28 73.5 µM | Malme-3M 12.6 µM | K562 53.6 µM | HOP-62 78.5 µM | LOX IMVI 51.4 µM

O=C(COc1ccc(OCC(=O)N/N=C/c2ccc(-c3ccc(Cl)cc3Cl)o2)c(Cl)c1)N/N=C/c1ccc(-c2ccc(Cl)cc2Cl)o1
inactive: NCI-H522 81.8 µM | OVCAR-3 49.5 µM | UO-31 > 100 µM | SK-MEL-2 17.1 µM | HL-60 16.4 µM | UACC-257 > 100 µM | M14 > 100 µM | SF-295 32.2 µM | RPMI-8226 12.6 µM | T47D > 100 µM | HCC 2998 29.8 µM | NCI-H460 > 100 µM | A549 85.5 µM | 786-0 94.4 µM | SK-MEL-28 > 100 µM | Malme-3M 82.8 µM | K562 15.3 µM | HOP-62 27.5 µM | LOX IMVI 57.9 µM

CC(C)(NC(=O)OCc1ccccc1)C(=O)OC(=O)C(C)(C)NC(=O)OCc1ccccc1
inactive: NCI-H522 > 100 µM | OVCAR-3 > 100 µM | UO-31 > 100 µM | SK-MEL-2 > 100 µM | HOP-92 > 100 µM | M14 > 100 µM | SF-295 > 100 µM | RPMI-8226 > 100 µM | T47D > 100 µM | NCI-H460 > 100 µM | A549 > 100 µM | 786-0 > 100 µM | SK-MEL-28 > 100 µM | Malme-3M > 100 µM | K562 > 100 µM | HOP-62 > 100 µM | LOX IMVI > 100 µM

— ChEMBL document CHEMBL1201862, “PubChem BioAssay data set” (2004)
